In PMC4301037, “Identification and Structure–Function Analysis of Subfamily Selective G Protein-Coupled Receptor Kinase Inhibitors” (ACS Chemical Biology, 2014):
Read-outs that look alike come from different tables or passages of the source.

What was measured:
bovine GRK5 = molecular target: T1, bovine GRK5 (Bos taurus, UniProt P43249); assay: Primary DSF inhibitor screen, GRK5; assay type: binding; conditions: 10 μM compound; for ΔTm at 10 µM / ΔTm, primary screen, GRK5: 2 μM kinase, relative to DMSO control; for ΔTm at 10 µM: read-out: ΔTm, primary screen, GRK5; for rank in the primary screen, GRK5: rank ordering of compounds in primary DSF screen
T1 construct: when using full-length kinases as the receptor[37] instead of isolated kinase domains; made in house
T1 sequence (P43249 whole entry, the tested form may be a part): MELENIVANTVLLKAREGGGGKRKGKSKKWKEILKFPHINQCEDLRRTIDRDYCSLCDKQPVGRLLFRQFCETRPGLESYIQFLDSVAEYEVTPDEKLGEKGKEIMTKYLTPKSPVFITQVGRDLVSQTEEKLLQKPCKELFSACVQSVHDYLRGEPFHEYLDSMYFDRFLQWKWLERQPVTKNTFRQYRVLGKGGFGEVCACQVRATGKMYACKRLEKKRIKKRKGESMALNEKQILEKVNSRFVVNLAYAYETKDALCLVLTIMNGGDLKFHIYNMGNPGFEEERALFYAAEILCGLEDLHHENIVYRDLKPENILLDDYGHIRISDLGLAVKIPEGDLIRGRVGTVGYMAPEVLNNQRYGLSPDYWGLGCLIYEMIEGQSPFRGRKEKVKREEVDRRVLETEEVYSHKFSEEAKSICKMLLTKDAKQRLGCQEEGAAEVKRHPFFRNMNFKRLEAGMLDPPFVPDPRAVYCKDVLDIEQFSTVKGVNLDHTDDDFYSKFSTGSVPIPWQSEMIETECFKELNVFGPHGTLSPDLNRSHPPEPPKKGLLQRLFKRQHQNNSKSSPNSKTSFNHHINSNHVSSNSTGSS

PKA = molecular target: T2, PKA (Mus musculus, UniProt P05132); assay: PKA inhibition assay (ADP-Glo, CREBtide, 100 μM ATP); assay type: biochemical
T2 construct: His tag (inferred from pET15b vector and Ni-NTA column) (N); host or cells: E. coli Rosetta(DE3)pLysS

protein kinase A (PKA) = molecular target: T3, protein kinase A (PKA) (Mus musculus, UniProt P05132); assay: DSF retest (confirmation), PKA; assay type: binding; conditions: for PKA Tm: 0.2 mg mL^–1 kinase; for PKA ΔTm: relative to intrinsic melting point of the kinase
T3 construct: His tag (inferred from pET15b vector and Ni-NTA column) (N); host or cells: E. coli Rosetta(DE3)pLysS
Method: Fourteen compounds (Figure 1a–c), including all GRK2 hits except staurosporine, and the most stabilizing pyrrolopyrimidine-containing compounds were obtained from GSK and retested using DSF on GRKs representing each vertebrate subfamily (GRK1, 2, and 5) (Table 1). […] The ability of these compounds to shift the Tm of the related AGC family kinase member protein kinase A (PKA) was also assessed (Table 1). In no case was ΔTm greater for PKA than for one of the tested GRKs. […]. There was no correlation for GRK1 (Figure 2c).
DSF was conducted using a ThermoFluor plate reader (Johnson & Johnson) in a buffer containing 20 mM HEPES, pH 7.0, 5 mM MgCl2, 2 mM DTT, and 1 mM CHAPS with 0.2 mg mL^–1 final concentration of GRK or PKA and 100 μM 1-anilinonaphthalene-8-sulfonic acid.[14]

human GRK2S670A = molecular target: T4, human GRK2S670A (Homo sapiens, UniProt P25098, S670A); assay: Primary DSF (differential scanning fluorimetry) inhibitor screen, GRK2; assay type: binding; conditions: 10 μM compound; for ΔTm at 10 µM: read-out: ΔTm, primary screen, GRK2
T4 construct: when using full-length kinases as the receptor[37] instead of isolated kinase domains; made in house
T4 sequence (P25098 1-689 S670A): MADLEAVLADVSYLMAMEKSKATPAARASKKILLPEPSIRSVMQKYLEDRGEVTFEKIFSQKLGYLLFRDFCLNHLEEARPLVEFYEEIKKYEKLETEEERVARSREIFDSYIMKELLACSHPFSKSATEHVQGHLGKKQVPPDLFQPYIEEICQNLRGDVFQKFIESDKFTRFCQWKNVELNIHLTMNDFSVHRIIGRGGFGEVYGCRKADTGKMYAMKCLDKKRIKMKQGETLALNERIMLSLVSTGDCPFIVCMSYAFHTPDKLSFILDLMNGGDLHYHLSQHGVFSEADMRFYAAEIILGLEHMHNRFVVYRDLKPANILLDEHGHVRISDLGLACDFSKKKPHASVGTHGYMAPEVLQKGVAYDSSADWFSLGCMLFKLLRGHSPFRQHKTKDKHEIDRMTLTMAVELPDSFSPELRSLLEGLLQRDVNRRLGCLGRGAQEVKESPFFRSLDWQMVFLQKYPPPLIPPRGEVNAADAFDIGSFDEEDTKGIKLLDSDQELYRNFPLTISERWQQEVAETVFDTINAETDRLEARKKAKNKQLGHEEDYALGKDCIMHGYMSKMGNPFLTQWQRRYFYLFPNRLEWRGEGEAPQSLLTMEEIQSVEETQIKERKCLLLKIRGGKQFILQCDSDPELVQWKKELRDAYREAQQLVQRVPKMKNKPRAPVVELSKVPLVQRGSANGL

GRK2 [1] = molecular target: T5, GRK2 (Homo sapiens, UniProt P25098, S670A); assay: DSF retest (confirmation), GRK2; assay type: binding; conditions: for GRK2 Tm: 0.2 mg mL^–1 kinase; for GRK2 ΔTm: relative to intrinsic melting point of the kinase
T5 construct: made in house
T5 sequence (P25098 1-689 S670A): T4 sequence (P25098 1-689 S670A)

GRK5 [2] = molecular target: T6, GRK5 (Bos taurus, UniProt P43249); assay: DSF retest (confirmation), GRK5; assay type: binding, bovine; conditions: for GRK5 Tm: 0.2 mg mL^–1 kinase; for GRK5 ΔTm: relative to intrinsic melting point of the kinase
T6 construct: when using full-length kinases as the receptor[37] instead of isolated kinase domains; made in house
T6 sequence (P43249 whole entry, the tested form may be a part): as the sequence (P43249 whole entry, the tested form may be a part) above

GRK2 [3] = molecular target: T7, GRK2 (Bos taurus, UniProt P21146, S670A); assay: In vitro phosphorylation assay (tubulin, 5 μM ATP), GRK2; assay type: biochemical, bovine; conditions: for IC50: read-out: GRK2 log IC50 (converted)
T7 construct: made in house
T7 sequence (P21146 1-689 S670A): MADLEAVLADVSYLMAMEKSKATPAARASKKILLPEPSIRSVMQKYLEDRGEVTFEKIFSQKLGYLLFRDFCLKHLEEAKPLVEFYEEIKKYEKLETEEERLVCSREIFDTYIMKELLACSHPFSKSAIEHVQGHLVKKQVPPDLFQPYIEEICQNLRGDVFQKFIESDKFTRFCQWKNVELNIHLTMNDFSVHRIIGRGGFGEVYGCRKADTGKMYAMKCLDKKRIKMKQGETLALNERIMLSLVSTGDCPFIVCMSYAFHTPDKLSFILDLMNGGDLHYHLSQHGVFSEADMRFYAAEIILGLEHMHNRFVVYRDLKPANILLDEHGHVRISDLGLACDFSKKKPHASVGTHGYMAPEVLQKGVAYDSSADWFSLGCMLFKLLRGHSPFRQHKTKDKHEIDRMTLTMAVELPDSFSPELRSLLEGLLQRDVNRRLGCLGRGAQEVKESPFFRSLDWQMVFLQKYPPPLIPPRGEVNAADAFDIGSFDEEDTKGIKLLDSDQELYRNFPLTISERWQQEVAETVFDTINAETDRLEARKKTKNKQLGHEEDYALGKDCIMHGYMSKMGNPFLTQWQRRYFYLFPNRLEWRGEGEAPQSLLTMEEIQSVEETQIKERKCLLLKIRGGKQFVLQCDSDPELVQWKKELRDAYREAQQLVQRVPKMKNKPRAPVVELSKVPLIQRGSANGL

GRK1, 2, and 5 and PKA = assay: Ssel selectivity score calculated from inhibition of GRK1, 2, 5 and PKA; conditions: selectivity score from inhibition of GRK1, 2, 5 and PKA; <0.5 selective
GRK1 [4] = molecular target: T8, GRK1 (Bos taurus, UniProt P28327); assay: DSF retest (confirmation), GRK1; assay type: binding, bovine; conditions: for GRK1 Tm: 0.2 mg mL^–1 kinase; for GRK1 ΔTm: relative to intrinsic melting point of the kinase
T8 construct: Bovine GRK1_1–535, bovine and human GRK2S670A; made in house
T8 sequence (P28327 1-535): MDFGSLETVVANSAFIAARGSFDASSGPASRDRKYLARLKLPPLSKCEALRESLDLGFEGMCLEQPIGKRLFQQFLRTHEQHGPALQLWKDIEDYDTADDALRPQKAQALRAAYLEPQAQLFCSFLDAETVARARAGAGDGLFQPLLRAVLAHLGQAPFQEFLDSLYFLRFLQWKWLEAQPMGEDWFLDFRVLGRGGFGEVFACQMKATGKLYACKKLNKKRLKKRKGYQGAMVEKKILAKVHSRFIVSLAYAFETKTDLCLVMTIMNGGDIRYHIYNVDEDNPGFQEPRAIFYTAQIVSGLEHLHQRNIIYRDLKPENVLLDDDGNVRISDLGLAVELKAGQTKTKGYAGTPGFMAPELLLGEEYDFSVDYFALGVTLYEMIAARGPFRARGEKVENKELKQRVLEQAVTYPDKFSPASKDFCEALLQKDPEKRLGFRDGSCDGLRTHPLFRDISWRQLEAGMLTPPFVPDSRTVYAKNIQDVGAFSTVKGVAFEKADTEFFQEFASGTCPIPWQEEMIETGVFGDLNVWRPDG

GRK1 [5] = molecular target: T8, GRK1; assay: In vitro phosphorylation assay (tubulin, 5 μM ATP), GRK1; assay type: biochemical, bovine
GRK5 [6] = molecular target: T6, GRK5; assay: In vitro phosphorylation assay (tubulin, 5 μM ATP), GRK5; assay type: biochemical, bovine; conditions: for IC50: read-out: GRK5 log IC50 (converted)
[7] = logarithm of IC50 (−3.3 corresponds to 0.5 mM, footnote c), 438 nM PKA, 100 μM ATP, CREBtide, read-out: PKA log IC50 (converted)
[8] = 2 μM kinase, relative to DMSO control
[9] = read-out: GRK1 log IC50 (converted)

Structure (SMILES)	ΔTm at 10 µM (bovine GRK5)	IC50 (PKA; [7])	PKA Tm (protein kinase A (PKA))	PKA ΔTm (protein kinase A (PKA))	ΔTm at 10 µM (human GRK2S670A; [8])	GRK2 Tm (GRK2 [1])	GRK2 ΔTm (GRK2 [1])	GRK5 Tm (GRK5 [2])	GRK5 ΔTm (GRK5 [2])	IC50 (GRK2 [3])	GRK2 fold (increase in potency relative to paroxetine) (GRK2 [3])	Ssel (GRK1, 2, and 5 and PKA)	GRK1 Tm (GRK1 [4])	GRK1 ΔTm (GRK1 [4])	IC50 (GRK1 [5]; [9])	GRK5 fold (increase in potency relative to paroxetine) (GRK5 [6])	ΔTm, primary screen, GRK5 (bovine GRK5)	rank in the primary screen, GRK5 (bovine GRK5)	GRK1 fold (increase in potency relative to paroxetine) (GRK1 [5])	IC50 (GRK5 [6])	other results
CC1=C(C(=O)Nc2ccc3[nH]ncc3c2)C(c2ccc(Cl)c(Cl)c2)CC(=O)N1 (centres unmarked) [GSK299115A]	3.55 °C	63.1 µM	49.5 °C	4.1 °C	4.83 °C	48.3 °C	10.7 °C	28.1 °C	1.3 °C	3.16 µM	0.40 fold	0.360	23.4 °C	3.5 °C	> 1000 µM	1.6 fold	–	–	–	–	IC50 (PKA; read-out: IC50 against PKA): < 100 µM; ΔTm, primary screen, GRK2 (human GRK2S670A; [8]): 4.8 °C; rank in the primary screen, GRK2 (human GRK2S670A; rank ordering of compounds in primary DSF screen): 4
CCCN1CCC(c2ccc(Nc3nc(Nc4cc(F)ccc4C(N)=O)c4cc[nH]c4n3)c(OC)c2)CC1 [GSK1326255A]	6.35 °C	> 501 µM	48.5 °C	3.1 °C	3.29 °C	42.4 °C	4.9 °C	29.3 °C	2.5 °C	7.94 µM	–	0.586	–	–	–	–	–	–	–	–	IC50 (GRK1 [5]): 501 µM
COc1cc2c(cc1Nc1nc(Nc3ccsc3C(N)=O)c3cc[nH]c3n1)N(C(=O)CN(C)C)CCC2 [GSK2110236A]	8.36 °C	> 501 µM	46.6 °C	1.2 °C	–	40.6 °C	3.0 °C	32.6 °C	5.8 °C	20 µM	0.063 fold	0.561	18.5 °C	–1.4 °C	0.631 µM	40 fold	8.3 °C	7	631 fold	3.16 µM	selectivity for GRK5 over GRK2 (GRK5 [6]; from IC50 values of Table 2): 6 fold
CNC(=O)c1ncccc1Nc1nc(Nc2cc3c(cc2OC)CCCN3C(=O)CN(C)C)nc2[nH]ccc12 [GSK2220400A]	6.87 °C	> 501 µM	45.4 °C	0.0 °C	–	38.8 °C	1.2 °C	30.5 °C	3.8 °C	200 µM	0.0063 fold	0.770	28.6 °C	8.7 °C	10 µM	20 fold	6.9 °C	13	40 fold	6.31 µM	lower potency against GRK1 (GRK1 [5]; relative to GSK2163632A): 100 fold
